TGI and GI50 data for 14 molecules are collected here from PubChem BioAssay (NCI).

Test systems include HOP-92 NSCLC; HCT-116 colon; DU-145 prostate; MALME-3M melanoma; PC-3 prostate; SK-MEL-2 melanoma; A549 NSCLC; HOP-62 NSCLC; SK-MEL-28 melanoma; SNB-75 CNS.
Common to all, as to test: inhibition of tumour cell growth, NCI panel, 48 h

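Grown in 96-well plates, cells were treated for 48 hours with each compound at five concentrations. Insufficient inhibition: endpoint recorded as highest concentration tested. GI50 = concentration required for 50% inhibition of growth. TGI is the concentration that stops growth completely.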

As to `CCN(CC)c1ccc(/C=c2\nc(-c3ccccc3)n3c2nc2ccccc23)cc1`, the TGI is over 100 µM in the assay on HOP-92 NSCLC; 18.8 µM in the assay with HCT-116 colon; over 100 µM with DU-145 prostate; 52.3 µM in the assay with MALME-3M melanoma; 8.7 µM with PC-3 prostate; over 100 µM with SK-MEL-2 melanoma. For the same molecule, the TGI was over 100 µM with A549 NSCLC and 68.6 µM in the assay with HOP-62 NSCLC.
Take `O=c1c(/C=C/c2c(O)ccc3ccccc23)nnc2sc(-c3cccc([N+](=O)[O-])c3)nn12`: the TGI is over 100 µM in the assay on HOP-92 NSCLC; 32.2 µM in the assay with HCT-116 colon; over 100 µM with DU-145 prostate; 47.3 µM in the assay with MALME-3M melanoma; over 100 µM in the assay with SK-MEL-28 melanoma; 46.5 µM with PC-3 prostate. For the same molecule, the values for the TGI in the assay with SK-MEL-2 melanoma and in the assay on HOP-62 NSCLC were 70.1 µM and over 100 µM, respectively.
Take `c1nncn1C12C3C4C5C3C1C5C42` (stereo not drawn): the TGI in the assay with SNB-75 CNS, with HCT-116 colon, in the assay with DU-145 prostate, in the assay with SK-MEL-28 melanoma, in the assay with PC-3 prostate and in the assay with SK-MEL-2 melanoma was over 100 µM each time. Also, the TGI with A549 NSCLC and with HOP-62 NSCLC was over 100 µM throughout.
Take `CCOC(O)C(F)(F)F` (stereo not drawn): the TGI with HOP-92 NSCLC, in the assay with SNB-75 CNS, in the assay on HCT-116 colon, with DU-145 prostate, in the assay on SK-MEL-28 melanoma and in the assay with PC-3 prostate was over 100 µM each time. In addition, in the assay on A549 NSCLC, the TGI is over 100 µM.
For the molecule `CCC(C)NC(=S)N/N=C(\C)c1ccccn1` (stereo not drawn), the TGI with HOP-92 NSCLC is 0.668 µM; in the assay with HCT-116 colon, over 100 µM; in the assay with DU-145 prostate, over 46.8 µM; in the assay with MALME-3M melanoma, over 28.3 µM; in the assay with SK-MEL-28 melanoma it was over 100 µM; with PC-3 prostate, over 100 µM. The results for the TGI in the assay on SK-MEL-2 melanoma, in the assay with A549 NSCLC and in the assay on HOP-62 NSCLC were over 100 µM, over 33.5 µM and over 25.8 µM, respectively.
In the case of `COC(=O)C1=COC(C)C2C[n+]3ccc4c([nH]c5ccccc54)c3CC12` (stereo not drawn), the TGI with HOP-92 NSCLC, in the assay on SNB-75 CNS, with HCT-116 colon, with DU-145 prostate, with SK-MEL-28 melanoma and in the assay with PC-3 prostate was over 100 µM throughout. For the same molecule, the TGI with SK-MEL-2 melanoma, in the assay with A549 NSCLC and in the assay on HOP-62 NSCLC was over 100 µM each time.
Take `C=C(C)[C@@H]1CC[C@]2(CO)CC[C@]3(C)[C@H](CC[C@@H]4[C@@]5(C)CC[C@H](O)C(C)(C)[C@@H]5CC[C@]43C)[C@@H]12`: the TGI is 41 µM with HOP-92 NSCLC; 28.9 µM in the assay on SNB-75 CNS; over 100 µM in the assay with HCT-116 colon; over 100 µM in the assay on DU-145 prostate; over 100 µM with MALME-3M melanoma; over 100 µM in the assay with SK-MEL-28 melanoma. In addition, the TGI came to 84.3 µM in the assay with PC-3 prostate, 26.9 µM in the assay with A549 NSCLC and 42.1 µM in the assay on HOP-62 NSCLC.
Regarding `CCOC(=O)c1[nH]cnc1/N=N/N(C)N`, the TGI with SNB-75 CNS, in the assay on HCT-116 colon, in the assay with DU-145 prostate, with MALME-3M melanoma, in the assay on SK-MEL-28 melanoma and in the assay with PC-3 prostate was over 100 µM throughout. In addition, the TGI in the assay with SK-MEL-2 melanoma, with A549 NSCLC and in the assay with HOP-62 NSCLC was over 100 µM throughout.
Regarding `C/C=C1\CN2CCC34c5ccccc5N(C)C35OCC4(C(=O)OC)C1CC25` (stereo not drawn), the TGI with HOP-92 NSCLC, in the assay on SNB-75 CNS, with HCT-116 colon, with DU-145 prostate, in the assay with SK-MEL-28 melanoma and with PC-3 prostate was over 100 µM each time. Further, the TGI in the assay on SK-MEL-2 melanoma, in the assay on A549 NSCLC and in the assay with HOP-62 NSCLC was over 100 µM in each case.
In the case of `COC(=O)C1=C(O)C(C(=O)OC)[C@]2(O)[C@H](C(=O)OC)[C@H]1C[C@@H](c1cccc(OC)c1)[C@H]2C(=O)OC` (stereo partly drawn), the TGI in the assay on HOP-92 NSCLC was over 100 µM; with SNB-75 CNS, over 100 µM; in the assay on HCT-116 colon, 65.6 µM; in the assay on MALME-3M melanoma, over 100 µM; in the assay with SK-MEL-28 melanoma, over 100 µM; with SK-MEL-2 melanoma, 44.5 µM. For the same molecule, the TGI with A549 NSCLC turned out to be 75.3 µM; in the assay on HOP-62 NSCLC it was 89.5 µM.
In the case of `CC(=O)N1CC(C)(C)c2c1cc(C)c(O)c2C`, the TGI with HCT-116 colon, with DU-145 prostate, in the assay with SK-MEL-28 melanoma, in the assay with PC-3 prostate, in the assay with SK-MEL-2 melanoma and with A549 NSCLC was over 100 µM each time. This molecule had a TGI in the assay with HOP-62 NSCLC of over 100 µM.
Regarding `CCn1nc(-c2ccccc2)c2c1N(C)c1ccccc1-n1c(-c3ccccc3)nnc1-2`, the TGI in the assay on HOP-92 NSCLC was 35.9 µM; in the assay with SNB-75 CNS, 15.7 µM; in the assay on HCT-116 colon, 26.3 µM; in the assay on DU-145 prostate, 29.7 µM; with SK-MEL-28 melanoma, 33.1 µM; with PC-3 prostate it was 27.7 µM. Moreover, the results for the TGI in the assay on SK-MEL-2 melanoma, in the assay with A549 NSCLC and with HOP-62 NSCLC were 32.8 µM, 29.9 µM and 32.2 µM, respectively.
Regarding `COc1cc(C(=O)O[C@H](C(=O)NCCNC(=O)[C@@H](OC(=O)c2cc(OC)cc3c(C)cccc23)[C@]2(C)CO2)[C@]2(C)CO2)c2cccc(C)c2c1`, the GI50 in the assay with HOP-92 NSCLC is 0.101 µM; in the assay with SNB-75 CNS, 0.304 µM; in the assay with HCT-116 colon it was under 0.0285 µM; in the assay with DU-145 prostate, 0.257 µM; with SK-MEL-28 melanoma it was 0.0524 µM; in the assay on PC-3 prostate, 0.109 µM. In addition, the results for the GI50 in the assay on SK-MEL-2 melanoma, with A549 NSCLC and in the assay on HOP-62 NSCLC were under 0.0461 µM, under 0.0428 µM and 0.16 µM, respectively. The TGI stood at 0.404 µM in the assay on HOP-92 NSCLC; 1.4 µM in the assay on SNB-75 CNS; 0.298 µM with HCT-116 colon; 1.46 µM with DU-145 prostate; 1.25 µM with A549 NSCLC; 0.919 µM in the assay on HOP-62 NSCLC.
For `CC1(C)C2CCC1(C)C(N/C(=C(/C(Cl)=C(Cl)Cl)[N+](=O)[O-])n1nnc3ccccc31)C2` (stereo not drawn), the TGI in the assay on SNB-75 CNS was 70 µM; with HCT-116 colon it was over 100 µM; in the assay with MALME-3M melanoma, 39.4 µM; in the assay with SK-MEL-28 melanoma, over 100 µM; in the assay on PC-3 prostate, 48.3 µM; in the assay on SK-MEL-2 melanoma, 61 µM. The TGI was over 100 µM with A549 NSCLC and 67 µM in the assay on HOP-62 NSCLC.
